Tests used:
[1] = test system: A2058 (melanoma, derived from metastatic site: lymph node); assay: In vitro antiproliferative activity, Alamar Blue assay; type: cell-based; conditions: Homo sapiens; A2058, 24 h treatment, then three days culture, n = 2; read-out: IC50 ± SD
Description: (§1) For the experiments, the following human cell lines were used: A2058 (melanoma, derived from metastatic site: lymph node), HepG2 (hepatocellular carcinoma), U87 (glioblastoma), HT-29 (colorectal carcinoma) and HL-60 (acute promyelocytic leukaemia). Cell lines were generous gifts from Dr. […] (Department of Experimental Pharmacology, National Institute of Oncology, Budapest, Hungary). […] The cultures were maintained at 37 °C in a humidified atmosphere with 5% CO2. The cells were grown to confluency and then divided into 96-well tissue culture plates (Sarstedt, Nümbrecht, Germany) with an initial cell number of 5000 cells/well. Cells were incubated at 37 °C in a 5% CO2 humidified atmosphere overnight. Before the assay, 50 μL of the supernatant was removed and replaced with a 50 μL serum-free medium (SFM). […] The cells were treated for 24 h with the compounds and negative control cells (no compound control) were treated with SFM only (incubated at 37 °C). […] The percentage of cytostasis was calculated with the following equation: […] Data were evaluated with Excel (version: 365; Microsoft, Redmond, WA, USA) and the curves were defined using Microcal OriginPro (version: 2018; OriginLab, Northampton, MA, USA) software. In each case, two independent experiments were carried out with four parallel measurements and the mean IC50 values together with ±SD were represented. The Excel (version: 365) (Microsoft, Redmond, WA, USA) and Microcal OriginPro (version: 2018) (OriginLab, Northampton, MA, USA) softwares were used for data evaluation.

[2] = test system: HL-60 (acute promyelocytic leukaemia); assay: as above; type: cell-based; conditions: Homo sapiens; HL-60, 24 h treatment, then three days culture, n = 2; read-out: IC50 ± SD
Description: as §1

[3] = test system: HepG2 (hepatocellular carcinoma); assay: as above; type: cell-based; conditions: Homo sapiens; HepG2, 24 h treatment, then three days culture, n = 2; read-out: IC50 ± SD
Description: as §1

U87 (glioblastoma) = assay: as above; type: cell-based; conditions: Homo sapiens; U87, 24 h treatment, then three days culture, n = 2; read-out: IC50 ± SD
Description: as §1

[4] = test system: HT-29 (colorectal carcinoma); assay: as above; type: cell-based; conditions: Homo sapiens; HT-29, 24 h treatment, then three days culture, n = 2; read-out: IC50 ± SD
Description: as §1

PAMPA-GI = type: in vitro ADME; conditions: for Papp at 4 h, 100 µM: PAMPA, read-out: logPe PAMPA-GI (n = 9) (converted)
Description: (§2) A parallel artificial membrane permeability assay (PAMPA) was used to determine the effective permeability (Pe) for the Carpinus diarylheptanoids. Stock solutions of the isolated compounds (10 mM in DMSO) were diluted with the defined buffer (pH 7.4 for the PAMPA-BBB and pH 6.8 for the PAMPA-GI assays) to obtain the donor solutions (composition: 297.0 μL buffer + 3.0 μL stock solution). Donor solutions were filtered through Phenex-RC 15 mm, 0.2 μm syringe filters (Gen-Lab Ltd., Budapest, Hungary).
For the PAMPA-BBB test, 5 μL of porcine polar brain lipid extract (PBLE) solution (16.0 mg PBLE + 8.0 mg cholesterol dissolved in 600.0 μL n-dodecane) was applied for each well of the 96-well polycarbonate-based filter donor plates (top plate) (Multiscreen™-IP, MAIPN4510, pore size 0.45 μm; Merck). For the PAMPA-GI assay, the wells of the top plate were coated with 5 μL of the mixture of 8.0 mg phosphatidylcholine + 4.0 mg cholesterol dissolved in 300.0 μL n-dodecane. The 150.0 μL aliquots of the filtrated donor solutions were placed on the membrane. The 96-well PTFE acceptor plates (bottom plates) (Multiscreen Acceptor Plate, MSSACCEPTOR; Merck), were filled with 300.0 μL buffer solution (0.01 M PBS buffer, pH 7.4). […]
After the incubation, the plates were separated and the compound concentrations in the donor (CD(t)) and acceptor (CA(t)) solutions were determined using the aforementioned UHPLC-DAD method (see Section 3.4). […] The effective permeability and the membrane retention in the PAMPA-BBB and the PAMPA GI experiments were calculated by Equations (3) and (4), respectively:(3) Pe=−2.303/A(t−τSS)·VA·VD/VA+VD·lg1−VA+VD/1−MR·VD×CAt/CD0 (4) Pe=−2.303/A(t−τSS))·1/1+ra·lg−ra+1+ra/1−MR×CDt/CD0 where Pe is the effective permeability coefficient (cm/s), A is the filter area (0.24 cm^2), VD and VA are the volumes in the donor (0.15 cm^3) and acceptor phases (0.30 cm^3), t is the incubation time (s), τSS is the time (s) to reach steady state (240 s), CD(t) is the concentration (mol/cm^3) of the compound in the donor phase at time t, CD(0) is the concentration (mol/cm^3) of the compound in the donor phase at time 0, MR is the estimated membrane retention factor (the estimated mole fraction of solute lost to the membrane) and ra is the sink asymmetry ratio (gradient-pH-induced), defined as:(5) ra=VD/VA×Pe(A→D)/Pe(D→A) (6) MR=1−CDt/CD0−VA/VDCAt/CD0
(§3) All experiments were performed in three triplicates on three consecutive days (n = 9); caffeine standard was used as positive, while rutin was used as negative control. Clog P values were calculated using ACD/ChemSketch (Freeware) 2 January 2020 (Advanced Chemistry Development, Inc., Toronto, ON, Canada).

[5] = design: method as in PMID 12350169; conditions: cited from earlier work
[6] = test system: SK-Mel-28 human melanoma cell line; design: method as in PMID 28208804; conditions: cited from earlier work
[7] = test system: A549 human lung adenocarcinoma cells; design: method as in PMID 28520428, PMID 28941682; conditions: cited from earlier work
[8] = test system: A375 human melanoma cell line; design: method as in PMID 28208804; conditions: cited from earlier work
[9] = test system: HeLa human cervical adenocarcinoma cells; design: method as in PMID 28520428, PMID 28941682; conditions: cited from earlier work
PAMPA-BBB = type: in vitro ADME; conditions: pH 7.4, read-out: logPe PAMPA-BBB (n = 9) (converted)
Description: as §2
For the PAMPA-BBB test, 5 μL of porcine polar brain lipid extract (PBLE) solution (16.0 mg PBLE + 8.0 mg cholesterol dissolved in 600.0 μL n-dodecane) was applied for each well of the 96-well polycarbonate-based filter donor plates (top plate) (Multiscreen™-IP, MAIPN4510, pore size 0.45 μm; Merck). […]
After the incubation, the plates were separated and the compound concentrations in the donor (CD(t)) and acceptor (CA(t)) solutions were determined using the aforementioned UHPLC-DAD method (see Section 3.4). […]
as §3

**Q.** For `O=C1C[C@H](O)[C@@H](O)Cc2ccc(O)c(c2)-c2cc(ccc2O)C[C@H]1O` [Compound 1, carpinontriol A], which IC50 [1] is on record?
**A.** 14.9 ± 2.3 µM

**Q.** And the IC50 [2]?
**A.** > 100 µM

**Q.** And the IC50 [3]?
**A.** > 100 µM

**Q.** And the IC50 (U87 (glioblastoma))?
**A.** > 100 µM

**Q.** What about the IC50 [4] of the same molecule?
**A.** > 100 µM

**Q.** And the Papp at 4 h, 100 µM (PAMPA-GI)?
**A.** 0.562 ×10⁻⁶ cm/s

**Q.** And the “antioxidant activity (in words)” value [5]?
**A.** only weak antioxidant activity

**Q.** With `O=C1CCc2ccc(O)c(c2)-c2cc(ccc2O)C[C@H](O)[C@H](O)[C@H]1O` [Compound 2, carpinontriol B] as the molecule, how does the “cytotoxic concentration (not cytotoxic up to)” value [6] read?
**A.** > 1000 µM

**Q.** And the IC50 [7]?
**A.** > 100 µM

**Q.** What about the IC50 [1] of the same molecule?
**A.** > 100 µM

**Q.** And the IC50 [2]?
**A.** > 100 µM

**Q.** What about the IC50 [3] of the same molecule?
**A.** > 100 µM

**Q.** What about the IC50 (U87 (glioblastoma)) of the same molecule?
**A.** > 100 µM

**Q.** What about the IC50 [4] of the same molecule?
**A.** > 100 µM

**Q.** What about the Papp at 4 h, 100 µM (PAMPA-GI) of the same molecule?
**A.** 3.47 ×10⁻⁶ cm/s

**Q.** And the “cytotoxic concentration (not cytotoxic up to)” value [8]?
**A.** > 1000 µM

**Q.** What about the IC50 [9] of the same molecule?
**A.** > 100 µM

**Q.** What about the “antioxidant activity (in words)” value [5] of the same molecule?
**A.** only weak antioxidant activity

**Q.** Which IC50 [1] does the source give for `O=C1CCc2ccc(O)c(c2)-c2cc(ccc2O)C[C@@H](O)[C@H](O)C1` [Compound 3, giffonin X] here?
**A.** > 100 µM

**Q.** And the IC50 [2]?
**A.** > 100 µM

**Q.** What about the IC50 [3] of the same molecule?
**A.** > 100 µM

**Q.** And the IC50 (U87 (glioblastoma))?
**A.** > 100 µM

**Q.** And the IC50 [4]?
**A.** > 100 µM

**Q.** And the Papp at 4 h, 100 µM (PAMPA-BBB)?
**A.** 1.2 ×10⁻⁶ cm/s

**Q.** And the Papp at 4 h, 100 µM (PAMPA-GI)?
**A.** 6.03 ×10⁻⁶ cm/s

**Q.** For `O=C1CCC(=O)C(O)Cc2ccc(O)c(c2)-c2cc(ccc2O)C1` (stereo not shown) [Compound 4, 3,12,17-trihydroxytricyclo [12.3.1.1^2,6]nonadeca-1(18),2(19),3,5,14,16-hexaene-8,11-dione], which IC50 [1] is on record?
**A.** > 100 µM

**Q.** What about the IC50 [2] of the same molecule?
**A.** > 100 µM

**Q.** And the IC50 [3]?
**A.** > 100 µM

**Q.** And the IC50 (U87 (glioblastoma))?
**A.** > 100 µM

**Q.** What about the IC50 [4] of the same molecule?
**A.** > 100 µM

**Q.** What about the “logPe PAMPA-GI (n = 9)” value (PAMPA-GI; donor pH 6.8, acceptor pH 7.4, 37 °C, 4 h, Pe in cm/s, n.d. = not detected in the acceptor phase) of the same molecule?
**A.** not detected in the acceptor phase
